Test results as given in patent publication US4642314A, “Antiulcer compounds” (Nisshin Flour Milling Co., Ltd., priority 1984, dated 1987).

Assays:
[1] = tested on: acetic acid-induced ulcer; test: Acetic acid-induced ulcer (Curative test); assay type: in vivo, rat (male SD rats); conditions: Table 2; rat, 0.05 ml of 15% acetic acid underneath the serosa; lesion area on 14th day
Experimental: (§1) In the case of reserpine-induced ulcer, the assay was performed according to the description in "Arch. Int. Pharmacodym. Ther. 147,113 (1964)", and in the case of acetic acid-induced ulcer, the assay was performed according to the method described in "Jap. J. Pharmac. 19,418 (1969)", by inducing experimental ulcer in rat and evaluating the effect thereon of the compounds tested.
Groups of rats, each consisting of 6 male SD rats weighing 150-200 g were used. The stomach of ether-anesthesized rat was exposed and while taking acre not to injure blood vessels, 0.05 ml of 15% aqueous acetic acid solution was injected underneath the serosa. On the 14th day, the rats were killed with chloroform, the stomach taken out and the area of the infected lesion measured.
The curative ratio was calculated using the above equation: [formula]

[2] = acute toxicity (LD50), intraperitoneal route in mice; assay type: in vivo; conditions: mouse, in vivo, ip
reserpine-induced ulcer = test: Reserpine-induced ulcer (Preventive test); assay type: in vivo, rat (male SD rats); conditions: Table 1; rat, 100 mg/kg oral, 30 min before reserpine 15 mg/kg i.p.; evaluated at 18 h; read-out: Preventive effect (preventive ratio)
Experimental: as §1
Groups of rats, each consisting of 6 male SD rats weighing 150-200 g were used. After 24 hours' fasting, a sample compound was orally administered to the rat at the dose of 100 mg/kg body weight, and 30 minutes after the administration, reserpine was intraperitoneally injected at the dose of 15 mg/kg body weight. Eighteen hours after the administration, the rats were killed with chloroform. The stomach was taken out, and severity of the hemorrhaging lesion was evaluated according to the method as above ("Arch. Int. Pharmacodym. Ther. 147,113 (1964)).
The preventive ratio was calculated using the following equation, [formula] wherein the control animals were intraperitoneally given reserpine only, at the dose of 15 mg/kg body weight.

Compound | Curative effect (curative ratio) [1] | LD50 ([2]; Table 2) | inhibition in vivo at 100 mg/kg (reserpine-induced ulcer) | LD50 ([2]; Table 1)
CCCCCCCCCCC/C=C\CCCCC(=O)OCC=C(C)CCC=C(C)CCC=C(C)CCC=C(C)CCC=C(C)CCC=C(C)CCC=C(C)CCC=C(C)CCC=C(C)CCC=C(C)C [Decaprenyl petroselinate] | ++ (25%-40%) | > 4000 mg/kg |  | 
CC(=O)OCC=C(C)CCC=C(C)CCC=C(C)CCC=C(C)CCC=C(C)CCC=C(C)CCC=C(C)CCC=C(C)CCC=C(C)C [Solanesyl acetate] |  |  | 40 to 60% | > 4000 mg/kg
C/C(=C\CCC(=O)OC/C=C(\C)CCC[C@H](C)CCC[C@H](C)CCCC(C)C)CCC[C@H](C)CCC[C@H](C)CCCC(C)C [Phytyl phytylacetate] |  |  | 40 to 60% | > 5000 mg/kg
CC(C)=CCCC(C)=CCCC(C)=CCCC(C)=CCCC(C)=CCCC(C)=CCCC(C)=CCCC(C)=CCCC(C)=CCCC(=O)OCC=C(C)CCC=C(C)CCC=C(C)CCC=C(C)CCC=C(C)CCC=C(C)CCC=C(C)CCC=C(C)CCC=C(C)CCC=C(C)C [Decaprenyl solanesylacetate] | + (10%-25%) | > 5000 mg/kg |  | 
CC(C)=CCCC(C)=CCCC(C)=CCCC(C)=CCCC(C)=CCCC(C)=CCCC(C)=CCCC(C)=CCCC(C)=CCCC(C)=CCCC(=O)OCCC(C)C [Isoamyl decaprenylacetate] | + (10%-25%) | > 4000 mg/kg |  | 
CCOC(=O)CCC=C(C)CCC=C(C)CCC=C(C)CCC=C(C)CCC=C(C)CCC=C(C)CCC=C(C)CCC=C(C)CCC=C(C)CCC=C(C)C [Ethyl decaprenylacetate] | +++ (40%-) | > 4000 mg/kg |  | 
CCCCCCCCCCCCCCCCCC(=O)OC/C=C(\C)CCC[C@H](C)CCC[C@H](C)CCCC(C)C [Phytyl stearate] | + (10%-25%) | > 4000 mg/kg |  | 
CCCCCCCC/C=C/CCCCCCCC(=O)OC/C=C(\C)CCC[C@H](C)CCC[C@H](C)CCCC(C)C [Phytyl elaidate] | + (10%-25%) | > 4000 mg/kg |  | 
CC(C)=CCCC(C)CCCC(=O)OC/C=C(\C)CCC[C@H](C)CCC[C@H](C)CCCC(C)C (stereo partly shown) [Phytyl citronellylacetate] |  |  | 10 to 40% | > 5000 mg/kg
CCCCCC[C@@H](O)C/C=C\CCCCCCCC(=O)OC/C=C(\C)CCC[C@H](C)CCC[C@H](C)CCCC(C)C [Phytyl ricinoleate] | + (10%-25%) | > 5000 mg/kg |  | 
CCCCCCCCCCCCCCCCCC(=O)OCCC(C)CCCC(C)CCCC(C)CCCC(C)C (stereo not shown) [Dihydrophytyl stearate] |  |  | 10 to 40% | > 4000 mg/kg
COC(=O)CC/C=C(\C)CCC[C@H](C)CCC[C@H](C)CCCC(C)C [Methyl phytlacetate, Methyl phytylacetate] |  |  | 10 to 40% | > 5000 mg/kg
COC(=O)CCC=C(C)CCC=C(C)CCC=C(C)CCC=C(C)CCC=C(C)CCC=C(C)CCC=C(C)CCC=C(C)CCC=C(C)C [Methyl solanesylacetate] | ++ (25%-40%) | > 4000 mg/kg |  | 
CC(C)=CCC/C(C)=C/CCC(=O)OC/C=C(\C)CCC[C@H](C)CCC[C@H](C)CCCC(C)C [Phytyl geranylacetate] |  |  | 10 to 40% | > 5000 mg/kg
CCCCC/C=C\C/C=C\CCCCCCCC(=O)OC/C=C(\C)CCC[C@H](C)CCC[C@H](C)CCCC(C)C [Phytyl linoleate] | + (10%-25%) | > 4000 mg/kg |  | 
COC(=O)CCC=C(C)CCC=C(C)CCC=C(C)CCC=C(C)CCC=C(C)CCC=C(C)CCC=C(C)CCC=C(C)CCC=C(C)CCC=C(C)C [Methyl decaprenylacetate] | ++ (25%-40%) | > 4000 mg/kg |  | 

Compound | Curative effect (curative ratio) [1] | LD50 ([2]; Table 2) | inhibition in vivo at 100 mg/kg (reserpine-induced ulcer) | LD50 ([2]; Table 1)
CCCCCCCC/C=C/CCCCCCCCCCCC(=O)OCC=C(C)CCC=C(C)CCC=C(C)CCC=C(C)CCC=C(C)CCC=C(C)CCC=C(C)CCC=C(C)CCC=C(C)CCC=C(C)C [Decaprenyl brassidate] | ++ (25%-40%) | > 4000 mg/kg |  | 
CC(C)=CCCC(C)=CCCC(C)=CCCC(=O)OC/C=C(\C)CCC[C@H](C)CCC[C@H](C)CCCC(C)C [Phytyl farnesylacetate] |  |  | 10 to 40% | > 5000 mg/kg
CCCCCCCC/C=C\CCCCCCCCCCCC(=O)OC/C=C(\C)CCC[C@H](C)CCC[C@H](C)CCCC(C)C [Phytyl erucate] |  |  | 10 to 40% | > 4000 mg/kg
CC(C)=CCCC(C)=CCCC(C)=CCCC(=O)OCC=C(C)CCC=C(C)CCC=C(C)CCC=C(C)CCC=C(C)CCC=C(C)CCC=C(C)CCC=C(C)CCC=C(C)C [Solanesyl farnesylacetate] |  |  | 10 to 40% | > 4000 mg/kg
CC(C)=CCCC(C)=CCCC(C)=CCCC(C)=CCCC(C)=CCCC(C)=CCCC(C)=CCCC(C)=CCCC(C)=CCCC(=O)OCC=C(C)CCC=C(C)CCC=C(C)CCC=C(C)CCC=C(C)CCC=C(C)CCC=C(C)CCC=C(C)CCC=C(C)C [Solanesyl solanesylacetate] |  |  | 10 to 40% | > 4000 mg/kg
CCCCCCCC/C=C\CCCCCCCC(=O)OCCC(C)CCCC(C)CCCC(C)CCCC(C)C (stereo not shown) [Dihydrophytyl oleate] |  |  | 10 to 40% | > 4000 mg/kg
CCCCCCCCCCCC(=O)OC/C=C(\C)CCC[C@H](C)CCC[C@H](C)CCCC(C)C [Phytyl laurate] |  |  | 40 to 60% | > 5000 mg/kg
CC(C)=CCCC(C)=CCCC(=O)OCC=C(C)CCC=C(C)CCC=C(C)CCC=C(C)CCC=C(C)CCC=C(C)CCC=C(C)CCC=C(C)CCC=C(C)CCC=C(C)C [Decaprenyl geranylacetate] | + (10%-25%) | > 5000 mg/kg |  | 
CC(C)=CCCC(C)=CCCC(C)=CCCC(C)=CCCC(C)=CCCC(C)=CCCC(C)=CCCC(C)=CCCC(C)=CCCC(=O)O [Solanesylacetic acid] | + (10%-25%) | > 4000 mg/kg |  | 
CC(C)=CCCC(C)=CCCC(=O)OCC=C(C)CCC=C(C)CCC=C(C)CCC=C(C)CCC=C(C)CCC=C(C)CCC=C(C)CCC=C(C)CCC=C(C)C [Solanesyl geranylacetate] | + (10%-25%) | > 4000 mg/kg |  | 
CC(C)=CCCC(C)=CCCC(C)=CCCC(C)=CCCC(C)=CCCC(C)=CCCC(C)=CCCC(C)=CCCC(C)=CCCC(C)=CCCC(=O)OC(C)C [Isopropyl decaprenylacetate] | + (10%-25%) | > 4000 mg/kg |  | 
CCCCCCCCC1OC1CCCCCCCC(=O)OC/C=C(\C)CCC[C@H](C)CCC[C@H](C)CCCC(C)C (stereo partly shown) [Phytyl 9,10-epoxystearate] | + (10%-25%) | > 5000 mg/kg |  | 
CCOC(=O)CCC=C(C)CCC=C(C)CCC=C(C)CCC=C(C)CCC=C(C)CCC=C(C)CCC=C(C)CCC=C(C)CCC=C(C)C [Ethyl solanesylacetate] | ++ (25%-40%) | > 4000 mg/kg |  | 
CCCCCCCCCCC/C=C\CCCCC(=O)OC/C=C(\C)CCC[C@H](C)CCC[C@H](C)CCCC(C)C [Phytyl petroselinate] | ++ (25%-40%) | > 5000 mg/kg |  | 
CC(C)=CCCC(C)=CCCC(C)=CCCC(C)=CCCC(C)=CCCC(C)=CCCC(C)=CCCC(C)=CCCC(C)=CCCC(C)=CCO [Decaprenol] | +++ (40%-) | > 4000 mg/kg |  | 
CC(C)=CCCC(C)=CCCC(C)=CCCC(=O)OCC=C(C)CCC=C(C)CCC=C(C)CCC=C(C)CCC=C(C)CCC=C(C)CCC=C(C)CCC=C(C)CCC=C(C)CCC=C(C)C [Decaprenyl farnesylacetate] | + (10%-25%) | > 5000 mg/kg |  | 
